From US4504655A, “Substances potentiating the activity of antibiotics and their production” (Takeda Chemical Industries, Ltd., priority 1981, dated 1985)
Values joined by “and” are separate entries in the source; they are usually repeats but may differ in a detail not shown here. Equal entries are not always repeated. “Also recorded” adds a separate entry of the source. Structures can show the parent of a compound that is named as a salt.

What was measured:
[1] = test system: Proteus mirabilis ATCC 21100; assay: Antibiotic-potentiating activity, paper disc growth inhibition zone, Proteus mirabilis ATCC 21100; type: cell-based
Protocol: (§1) *The test was performed using a bouillon agar medium containing the
antibiotic as specified and a paper disc, 8 mm in diameter. […]
*The test was performed under the same conditions as noted for Table 1
except for the test organism and the concentration of each coexisting

[2] = test system: Escherichia coli IFO 12734; assay: Antibiotic-potentiating activity, paper disc growth inhibition zone, Escherichia coli IFO 12734; type: cell-based
Protocol: The potency of the compound of the formula (II) can be determined, for instance, by the cup method or paper disc method using bouillon agar containing 0.05 μg/ml of cefmenoxime with Escherichia coli IFO 12734 as the test organism. […]
as §1
antibiotic as specified and a paper disc, 8 mm in diameter.
**A paper disc, 8 mm in diameter, was impregnated with 25 μl of the […]

[3] = test system: Escherichia coli IFO 12734; assay: Inhibition of growth of Escherichia coli in liquid culture (absorbance at 600 nm); type: cell-based
Protocol: Table 5: Inhibition of growth of Escherichia coli IFO 12734 in the copresence of F2 (obtained in Example 1) and cephalexin or cefmenoxime.
(§2) To 8 ml of YAB medium (1.75% Difco antibiotic medium No. 3, 0.5% Difco yeast extract) containing 12% (w/v) of sucrose, there were added 1 ml of water, 50 μg/ml cephalexin solution or 10 μg/ml cefmenoxime solution, and the medium was inoculated with 1 ml of a preculture in YAB medium at an early logarithmic growth phase and incubated with shaking at 37° C. for 2 hours. Thereafter, the absorbance of the culture broth was measured at 600 nm using a Shimadzu-Bausch & Lomb Spectronic 20 colorimeter.

[4] = test system: Escherichia coli IFO 12734; assay: as above; type: cell-based; remark: listed apart in the source
[5] = test system: Escherichia coli; assay: Observation of the culture broths under a phase contrast microscope; type: cell-based; conditions: for Form of cells under phase contrast microscope: antibiotic alone, F2 or F3 not added
Protocol: as §2

[6] = test system: β-lactamase producing bacteria; conditions: D. A. Leigh et al., 1981; cited from earlier work
[7] = test system: β-lactamases; conditions: D. A. Leigh et al., 1981; cited from earlier work
[8] = Solubility; type: physicochemical
[9] = Stability in aqueous solution; type: physicochemical; conditions: pH 3-9, heating at 60° C. for 10 minutes
[10] = F3 of Example 5, 1 μg/ml in test solution, no addition
[11] = F3 of Example 5, 5 μg/ml in test solution, no addition
[12] = F3 of Example 5, 25 μg/ml in test solution, no addition
[13] = F3 of Example 5, 125 μg/ml in test solution, no addition
[14] = F3 of Example 5, 1000 μg/ml in test solution, no addition
[15] = petroleum ether, hexane, diethyl ether, benzene, ethyl acetate and chloroform

CC(=O)NC1C(OC2CC(C(=O)O)NC2CO)OC(CO)C(OS(=O)(=O)O)C1O (stereo not shown) [F3]
Diameter of growth inhibition zone ([1]; F3 of Example 5, 1 μg/ml in test solution, 0.01 μg/ml of cefmenoxime): 9 mm
Diameter of growth inhibition zone ([1]; F3 of Example 5, 1 μg/ml in test solution, 0.05 μg/ml of mecillinam): < 8 mm
Diameter of growth inhibition zone [1, 10]: < 8 mm
Diameter of growth inhibition zone ([1]; F3 of Example 5, 5 μg/ml in test solution, 0.01 μg/ml of cefmenoxime): 12 mm
Diameter of growth inhibition zone ([1]; F3 of Example 5, 5 μg/ml in test solution, 0.05 μg/ml of mecillinam): 9 mm
Diameter of growth inhibition zone [1, 11]: < 8 mm
Diameter of growth inhibition zone ([1]; F3 of Example 5, 25 μg/ml in test solution, 0.01 μg/ml of cefmenoxime): 21 mm
Diameter of growth inhibition zone ([1]; F3 of Example 5, 25 μg/ml in test solution, 0.05 μg/ml of mecillinam): 13.5 mm
Diameter of growth inhibition zone [1, 12]: < 8 mm
Diameter of growth inhibition zone ([1]; F3 of Example 5, 125 μg/ml in test solution, 0.01 μg/ml of cefmenoxime): 28.5 mm
Diameter of growth inhibition zone ([1]; F3 of Example 5, 125 μg/ml in test solution, 0.05 μg/ml of mecillinam): 19 mm
Diameter of growth inhibition zone [1, 13]: < 8 mm
Diameter of growth inhibition zone ([1]; F3 of Example 5, 1000 μg/ml in test solution, 0.01 μg/ml of cefmenoxime): 32.5 mm
Diameter of growth inhibition zone ([1]; F3 of Example 5, 1000 μg/ml in test solution, 0.05 μg/ml of mecillinam): 30 mm
Diameter of growth inhibition zone [1, 14]: < 8 mm
Diameter of growth inhibition zone ([2]; F3 of Example 5, 1 μg/ml in test solution, 0.03 μg/ml of mecillinam): < 8 mm
Diameter of growth inhibition zone ([2]; F3 of Example 5, 1 μg/ml in test solution, 0.05 μg/ml of cefmenoxime): 10 mm
Diameter of growth inhibition zone [2, 10]: < 8 mm
Diameter of growth inhibition zone ([2]; F3 of Example 5, 5 μg/ml in test solution, 0.03 μg/ml of mecillinam): < 8 mm
Diameter of growth inhibition zone ([2]; F3 of Example 5, 5 μg/ml in test solution, 0.05 μg/ml of cefmenoxime): 12.5 mm
Diameter of growth inhibition zone [2, 11]: < 8 mm
Diameter of growth inhibition zone ([2]; F3 of Example 5, 25 μg/ml in test solution, 0.03 μg/ml of mecillinam): 9 mm
Diameter of growth inhibition zone ([2]; F3 of Example 5, 25 μg/ml in test solution, 0.05 μg/ml of cefmenoxime): 15 mm
Diameter of growth inhibition zone [2, 12]: < 8 mm
Diameter of growth inhibition zone ([2]; F3 of Example 5, 125 μg/ml in test solution, 0.03 μg/ml of mecillinam): 17.5 mm
Diameter of growth inhibition zone ([2]; F3 of Example 5, 125 μg/ml in test solution, 0.05 μg/ml of cefmenoxime): 26 mm
Diameter of growth inhibition zone [2, 13]: < 8 mm
Diameter of growth inhibition zone ([2]; F3 of Example 5, 1000 μg/ml in test solution, 0.03 μg/ml of mecillinam): 28.5 mm
Diameter of growth inhibition zone ([2]; F3 of Example 5, 1000 μg/ml in test solution, 0.05 μg/ml of cefmenoxime): 38 mm
Diameter of growth inhibition zone [2, 14]: < 8 mm
Inhibition of growth of Escherichia coli ([3]; in the presence of cephalexin or cefmenoxime, decrease in absorbance): inhibits the growth of Escherichia coli
Absorbance at 600 nm ([4]; final F3 (Example 5) 1 μg/ml, 1 μg/ml of cefmenoxime): 2.2
Absorbance at 600 nm ([4]; final F3 (Example 5) 1 μg/ml, no addition): 3.7
Absorbance at 600 nm ([4]; final F3 (Example 5) 10 μg/ml, 1 μg/ml of cefmenoxime): 0.6
Absorbance at 600 nm ([4]; final F3 (Example 5) 10 μg/ml, no addition): 3.7
Absorbance at 600 nm ([4]; final F3 (Example 5) 100 μg/ml, 1 μg/ml of cefmenoxime): 0.6
Absorbance at 600 nm ([4]; final F3 (Example 5) 100 μg/ml, no addition): 3.7
Swelling and bacteriolysis under phase contrast microscope ([5]; in the presence of cephalexin or cefmenoxime): partial swelling occurred and bacteriolysis proceeded
Elongation of cells under phase contrast microscope ([5]; in the presence of cephalexin or cefmenoxime, in dependence on the addition level): elongation was inhibited

O=C(O)[C@H]1/C(=C/CO)O[C@@H]2CC(=O)N21 [clavulanic acid]
Potentiation of activity of β-lactam antibiotics against β-lactamase producing bacteria [6]: synergistically potentiates their activity
Inactivation of β-lactam antibiotics by β-lactamases [7]: prevents inactivation

CC(=O)NC1C(OC2CC(C(=O)NCCS(=O)(=O)O)NC2CO)OC(CO)C(O)C1O (stereo not shown) [F4]
Diameter of growth inhibition zone ([2]; F4 of Example 7, 10 μg/ml in test solution, 0.03 μg/ml mecillinam): < 8 mm
Diameter of growth inhibition zone ([2]; F4 of Example 7, 10 μg/ml in test solution, 0.05 μg/ml cefmenoxime): < 8 mm
Diameter of growth inhibition zone ([2]; F4 of Example 7, 10 μg/ml in test solution, no addition): < 8 mm
Diameter of growth inhibition zone ([2]; F4 of Example 7, 100 μg/ml in test solution, 0.03 μg/ml mecillinam): 13 mm
Diameter of growth inhibition zone ([2]; F4 of Example 7, 100 μg/ml in test solution, 0.05 μg/ml cefmenoxime): 15 mm
Diameter of growth inhibition zone ([2]; F4 of Example 7, 100 μg/ml in test solution, no addition): < 8 mm
Diameter of growth inhibition zone ([2]; F4 of Example 7, 1000 μg/ml in test solution, 0.03 μg/ml mecillinam): 23 mm
Diameter of growth inhibition zone ([2]; F4 of Example 7, 1000 μg/ml in test solution, 0.05 μg/ml cefmenoxime): 26 mm
Diameter of growth inhibition zone ([2]; F4 of Example 7, 1000 μg/ml in test solution, no addition): < 8 mm

CC(=O)NC1C(OC2CC(C(=O)O)NC2CO)OC(CO)C(OS(=O)(=O)O)C1O (stereo not shown) [F3 monosodium salt]
Solubility ([8]; acetone): only sparingly soluble
Solubility ([8]; dimethyl sulfoxide): soluble
Solubility ([8]; ethanol and pyridine): only sparingly soluble
Solubility ([8]; methanol): soluble
Solubility [8, 15]: Insoluble
Solubility ([8]; water): readily soluble
Stability [9]: Stable

CC1=C(C(=O)O)N2C(=O)[C@@H](NC(=O)[C@H](N)c3ccccc3)[C@H]2SC1 [cephalexin, reference compound]
Absorbance at 600 nm ([3]; 5 μg/ml cephalexin alone (F2 0 μg/ml)): 2.35 and 2.15
Form of cells under phase contrast microscope [5]: much elongated form

CC(=O)NC1C(OC2CC(C(=O)NCCS(=O)(=O)O)NC2CO)OC(CO)C(OS(=O)(=O)O)C1O (stereo not shown) [monosodium salt of F2]
Solubility ([8]; acetone): sparingly soluble
Solubility ([8]; dimethyl sulfoxide): soluble
Solubility ([8]; ethanol and pyridine): sparingly soluble
Solubility ([8]; methanol): soluble
Solubility [8, 15]: Insoluble
Solubility ([8]; water): readily soluble
Stability [9]: Stable

CO/N=C(\C(=O)N[C@@H]1C(=O)N2C(C(=O)O)=C(CSc3nnnn3C)CS[C@H]12)c1csc(N)n1 [cefmenoxime, reference compound]
Diameter of growth inhibition zone ([1]; 0.01 μg/ml cefmenoxime alone (F2 or F3 0 μg/ml)): < 8 mm
Diameter of growth inhibition zone ([2]; 0.05 μg/ml cefmenoxime alone (F2, F3 or F4 0 μg/ml)): < 8 mm
Absorbance at 600 nm ([3]; 1 μg/ml cefmenoxime alone (F2 or F3 0 μg/ml)): 1.95 and 1.90 and 2.9
Form of cells under phase contrast microscope [5]: much elongated form

CC(=O)NC1C(OC2CC(C(=O)NCCS(=O)(=O)O)NC2CO)OC(CO)C(OS(=O)(=O)O)C1O (stereo not shown) [disodium salt of F2]
Solubility ([8]; acetone): Insoluble
Solubility ([8]; dimethyl sulfoxide): soluble
Solubility ([8]; ethanol and pyridine): spargingly soluble; also recorded: sparingly soluble
Solubility ([8]; methanol): spargingly soluble; also recorded: sparingly soluble
Solubility [8, 15]: Insoluble
Solubility ([8]; water): readily soluble
Stability [9]: Stable

CC1(C)S[C@@H]2[C@H](/N=C/N3CCCCCC3)C(=O)N2[C@H]1C(=O)O [mecillinam, reference compound]
Diameter of growth inhibition zone ([1]; 0.05 μg/ml mecillinam alone (F2 or F3 0 μg/ml)): < 8 mm
Diameter of growth inhibition zone ([2]; 0.03 μg/ml mecillinam alone (F2, F3 or F4 0 μg/ml)): < 8 mm
